According to PMC12406256, “Food Additives Inhibit Intestinal Drug Transporters but Have Limited Effect on In Vitro Drug Permeability” (Molecular Pharmaceutics, 2025):
Where “and” joins values, the source holds several entries; their conditions need not be identical. Equal values may be shown once. Entries after “also recorded” stand apart in the source; their conditions may differ. Read-outs that look alike come from different tables or passages of the source.

Experiments:
Caco-2 cells = test: in vitro
Description: Caco-2 cells were cultured on 12-well Transwell polycarbonate membrane inserts with a 0.4 μm pore size (Corning Incorporated, Kennebunk, ME) at 37 °C and 5% CO2 for 21–24 days prior to the experiment as described in Hubatsch et al. The culture medium (DMEM, 10% FBS, 1% MEM nonessential amino acids, 100 U/mL penicillin–streptomycin) was changed every second day. Transepithelial electrical resistance (TEER) was measured before and after the permeability assay with a Millicell-ERS electrode (Millipore, Bedford, MA) attached to an epithelial volt ohm meter (EVOM, World Precision Instruments, Sarasota, FL). The permeability assay was performed according to a previously published protocol. […] Sulfasalazine is a substrate of BCRP and OATP2B1. , The DMSO concentration was 0.45–1.5%. Before the experiment, inserts were washed and preincubated in the transport buffer for 20 min shaking at 37 °C. Sulfasalazine and LY permeability was measured in the apical to basolateral direction at five time points (20, 40, 60, 90, and 120 min) and, additionally, in the basolateral to apical direction to calculate the efflux ratio. […] […] LY (250 μM) was added on the donor side of all inserts to measure the integrity of the cell monolayer. Before analysis, samples were centrifuged at 2755g for 30 min, and donor solution and mass balance samples were diluted 1:100. LY fluorescence was measured with a Varioskan LUX microplate reader (Thermo Fisher Scientific) at 430 nm excitation and 538 nm emission. Sulfasalazine was analyzed with ultra-performance liquid chromatography (UPLC) using a Syncronis C18 column (1.7 μm particle size, 50 × 2.1 mm + 0.2 μm Waters online filter) (Thermo Fisher Scientific) coupled with Waters Acquity UPLC interfaced with a PDA detector both controlled by the Waters Empower software version 3. The UPLC was operated in gradient mode at 354 nm. Solvents were 0.015 M phosphate buffer pH 2 (A), acetonitrile (B), 1:1 acetonitrile/methanol (strong needle wash), and 20% acetonitrile (weak needle wash). Column temperature was 30 °C, injection volume was 10 μL, retention time was 1.46 min, and flow rate was 0.5 mL/min. The gradient was 25% B → 70% B (0–3 min), 70% B → 25% B (3.00–3.01 min), and 25% B (3.01–4 min). The data were collected for the first 180 s of each UPLC run.
In the Caco-2 permeability assay, the apparent permeability (P app) of sulfasalazine was calculated using the following equation: Papp=(dQ/dt)(1/A×C0) where dQ/dt is the rate of permeation across the cells (nmol/min), A is the surface area of the filter (1.12 cm^2), and C 0 is the initial concentration in the donor chamber (μM). The efflux ratio of sulfasalazine was calculated by dividing the P app in the basolateral to the apical direction by the P app in the apical to basolateral direction. The TEER for each cell insert was calculated before and after the experiment by multiplying the mean resistance of three measurements by the surface area of the filter (1.12 cm^2). Mass balance was calculated by dividing the […]. All experiments were done in triplicate wells, and the IC50 and Caco-2 permeability assays were repeated three times.

P-gp [1] = target: T1, P-gp (Homo sapiens, UniProt P08183); test: Vesicular transport assay, P-gp (N-methyl-quinidine substrate); conditions: food additive 50 μM; N-methyl-quinidine 2 μM; n = 1
T1 sequence (P08183 whole entry): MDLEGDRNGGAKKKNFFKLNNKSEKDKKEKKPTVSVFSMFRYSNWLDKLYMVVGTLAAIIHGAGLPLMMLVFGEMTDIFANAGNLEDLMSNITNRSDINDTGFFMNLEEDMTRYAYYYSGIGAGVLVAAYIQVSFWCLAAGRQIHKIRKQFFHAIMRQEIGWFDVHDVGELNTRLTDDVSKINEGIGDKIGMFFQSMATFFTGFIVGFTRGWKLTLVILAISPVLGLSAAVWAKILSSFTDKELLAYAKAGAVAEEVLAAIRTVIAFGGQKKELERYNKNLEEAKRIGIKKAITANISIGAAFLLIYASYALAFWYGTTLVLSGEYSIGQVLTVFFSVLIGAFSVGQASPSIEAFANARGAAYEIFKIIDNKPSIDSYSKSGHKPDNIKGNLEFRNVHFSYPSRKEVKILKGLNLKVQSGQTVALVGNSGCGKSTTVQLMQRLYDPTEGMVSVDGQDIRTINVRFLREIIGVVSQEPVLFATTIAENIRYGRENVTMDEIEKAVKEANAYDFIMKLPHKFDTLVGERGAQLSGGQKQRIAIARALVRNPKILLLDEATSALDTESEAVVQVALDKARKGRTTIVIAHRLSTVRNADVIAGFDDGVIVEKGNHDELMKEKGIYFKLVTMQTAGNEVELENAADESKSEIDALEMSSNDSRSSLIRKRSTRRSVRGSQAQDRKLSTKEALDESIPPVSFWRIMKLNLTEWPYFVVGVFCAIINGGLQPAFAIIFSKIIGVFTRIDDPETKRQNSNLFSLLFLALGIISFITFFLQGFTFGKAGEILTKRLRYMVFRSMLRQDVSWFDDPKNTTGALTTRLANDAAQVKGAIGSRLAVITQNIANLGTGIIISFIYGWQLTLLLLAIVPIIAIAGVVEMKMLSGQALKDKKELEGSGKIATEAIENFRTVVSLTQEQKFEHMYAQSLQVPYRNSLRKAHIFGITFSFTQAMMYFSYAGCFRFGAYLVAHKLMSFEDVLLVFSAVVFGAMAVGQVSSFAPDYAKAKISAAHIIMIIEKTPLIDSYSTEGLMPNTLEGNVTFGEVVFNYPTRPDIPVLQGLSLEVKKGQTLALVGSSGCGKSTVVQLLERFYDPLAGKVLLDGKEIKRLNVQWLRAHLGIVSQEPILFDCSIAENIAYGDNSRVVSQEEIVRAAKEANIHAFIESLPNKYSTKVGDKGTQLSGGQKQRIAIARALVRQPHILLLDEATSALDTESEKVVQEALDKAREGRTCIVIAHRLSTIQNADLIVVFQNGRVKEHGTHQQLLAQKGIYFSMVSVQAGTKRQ
Description: (§1) Transport inhibition by 22 food additives was tested with Spodoptera frugiperda (Sf9) derived crude membrane vesicles expressing BCRP, MRP2, or P-gp produced in-house. […] Vesicles (50 μg total protein/well) were diluted in an assay buffer (40 mM MOPS–Tris pH 7.0, 60 mM KCl, and 6 mM MgCl2) with the substrate, and food additives (final concentration of 50 μM) in DMSO were added to the mixture. After preincubation, either the assay buffer or Mg-ATP solution (final concentration 4 mM) was added to the plate to start the reaction. The plate was incubated at 37 °C, and the reaction was stopped with an ice-cold washing mixture (40 mM MOPS-Tris pH 7.0 and 70 mM KCl). Samples were moved to a MultiScreenHTS-FB Plate Glass fiber 1.0 μm/0.65 μm Durapore filter plate (Millipore, USA), and the wells were washed five times with the ice-cold washing mixture. For BCRP and MRP2, the fluorescent substrate was eluted from the filters with 100 μL 0.1 M NaOH. For LY samples, an equal volume of 0.1 M HCl was added to neutralize the samples before fluorescence measurement. The amount of the substrate accumulated into the vesicles was measured by fluorescent detection using a Varioskan LUX microplate reader (Thermo Fisher Scientific, Finland) (Table ). The accumulation into the P-gp vesicles was measured with high-performance liquid chromatography (HPLC) (Agilent 110 series, Agilent Technologies, USA) after lysis and elution of the vesicle contents with 100 μL 3:1 methanol/water + 0.1% formic acid. The column used was a Poroshell 120 EC-C18 with a size of 4.6 × 100 mm and 2.7 μm particle size. Eluent A was 0.1% formic acid, and eluent B was acetonitrile. The flow rate of eluent was 1 mL/min, and the injection volume of samples was 10 μL. […] The retention time for NMQ was around 2.5 min.
(§2) For the efflux transporters, the relative transport was calculated as relativetransport(%ofcontrol)=transportinh,ATP−transportinh,noATP/transportDMSO,ATP−transportDMSO,noATP×100% where transportinh,ATP and transportinh,no ATP are the transport rates in the presence of food additives with or without ATP, respectively, and transportDMSO,ATP and transportDMSO,no ATP are the corresponding transport rates in the presence of the vehicle (DMSO) with or without ATP.
(§3) The half-maximal inhibitory concentrations (IC50) were calculated with GraphPad Prism version 9.0.2 (GraphPad Software, San Diego, CA) using nonlinear regression that fits the data to a four-parameter dose–response curve: relativetransport=minimum+maximum−minimum/1+([I]/IC50)^h where minimum and maximum describe the plateaus of minimal and maximal relative transport (%), [I] is the concentration of inhibitor, and h is the Hill slope, which describes the steepness of the slope.

OATP2B1 [2] = target: T2, OATP2B1 (Homo sapiens, UniProt O94956); test: HEK293 uptake assay, OATP2B1 (5-carboxyfluorescein substrate); format: cell-based; conditions: food additive 50 μM; 5-carboxyfluorescein 2 μM; HEK293 cells; n = 1
T2 construct: expressed in transfected cells; host or cells: HEK293 cells (ATCC) transduced with recombinant OATP2B1 baculovirus
T2 sequence (O94956 1-709): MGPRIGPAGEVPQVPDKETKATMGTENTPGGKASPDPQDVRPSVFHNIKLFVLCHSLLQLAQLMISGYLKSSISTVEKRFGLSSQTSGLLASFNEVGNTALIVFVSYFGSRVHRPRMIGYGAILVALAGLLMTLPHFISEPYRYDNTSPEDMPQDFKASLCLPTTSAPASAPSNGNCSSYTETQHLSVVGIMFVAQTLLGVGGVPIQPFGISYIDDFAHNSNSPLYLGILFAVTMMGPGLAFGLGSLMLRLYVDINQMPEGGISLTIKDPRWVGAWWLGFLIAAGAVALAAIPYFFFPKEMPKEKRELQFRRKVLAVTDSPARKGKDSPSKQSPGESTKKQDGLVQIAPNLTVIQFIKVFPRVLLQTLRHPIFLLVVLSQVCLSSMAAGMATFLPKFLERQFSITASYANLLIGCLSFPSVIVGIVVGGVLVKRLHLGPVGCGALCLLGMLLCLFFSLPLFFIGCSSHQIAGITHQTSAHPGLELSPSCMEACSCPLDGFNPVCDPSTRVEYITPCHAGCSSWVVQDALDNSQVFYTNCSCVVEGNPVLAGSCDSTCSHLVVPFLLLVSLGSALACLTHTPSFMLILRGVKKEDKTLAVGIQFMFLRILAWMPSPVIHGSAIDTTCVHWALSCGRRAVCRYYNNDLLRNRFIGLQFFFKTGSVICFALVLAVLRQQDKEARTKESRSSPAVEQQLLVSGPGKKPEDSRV
Description: The inhibition of OATP2B1 was studied using a HEK293 cell-based uptake assay. HEK293 cells were cultured in DMEM supplemented with 10% FBS at 37 °C and 5% CO2 and seeded at 22,500 cells/well on 96-well plates coated with 0.1 mg/mL poly-D-lysine. After 24 h, the medium was replaced with a transduction mix (DMEM with 10% FBS, 5 mM sodium butyrate, and recombinant OATP2B1 or enhanced yellow fluorescent protein [eYFP, negative control] baculoviruses). The baculoviruses were produced as previously described. The uptake assay was performed after approximately 48 h. […] Test solutions also contained the substrate. Cells were washed with warm transport buffer and preincubated at 37 °C. Preincubation solutions were replaced with test solutions and incubated at 37 °C with shaking at 250 rpm. Transport was terminated by aspirating the test solution and washing the wells with an ice-cold transport buffer (150 μL) three times. Wells were left to dry, and cells were lysed with 0.1 M NaOH. […] Total protein concentration was measured from six random wells with a Pierce Coomassie (Bradford) Assay kit (Thermo Fisher Scientific) to ensure a similar protein concentration in the OATP2B1 and eYFP wells.

BCRP [3] = target: T3, BCRP (Homo sapiens, UniProt Q9UNQ0); test: Vesicular transport assay, BCRP (Lucifer yellow substrate); format: biochemical; parameters: made in house; host or cells: Spodoptera frugiperda Sf9 cells, crude membrane vesicles; conditions: for inhibition of BCRP substrate accumulation: n = 1
T3 sequence (Q9UNQ0 1-655): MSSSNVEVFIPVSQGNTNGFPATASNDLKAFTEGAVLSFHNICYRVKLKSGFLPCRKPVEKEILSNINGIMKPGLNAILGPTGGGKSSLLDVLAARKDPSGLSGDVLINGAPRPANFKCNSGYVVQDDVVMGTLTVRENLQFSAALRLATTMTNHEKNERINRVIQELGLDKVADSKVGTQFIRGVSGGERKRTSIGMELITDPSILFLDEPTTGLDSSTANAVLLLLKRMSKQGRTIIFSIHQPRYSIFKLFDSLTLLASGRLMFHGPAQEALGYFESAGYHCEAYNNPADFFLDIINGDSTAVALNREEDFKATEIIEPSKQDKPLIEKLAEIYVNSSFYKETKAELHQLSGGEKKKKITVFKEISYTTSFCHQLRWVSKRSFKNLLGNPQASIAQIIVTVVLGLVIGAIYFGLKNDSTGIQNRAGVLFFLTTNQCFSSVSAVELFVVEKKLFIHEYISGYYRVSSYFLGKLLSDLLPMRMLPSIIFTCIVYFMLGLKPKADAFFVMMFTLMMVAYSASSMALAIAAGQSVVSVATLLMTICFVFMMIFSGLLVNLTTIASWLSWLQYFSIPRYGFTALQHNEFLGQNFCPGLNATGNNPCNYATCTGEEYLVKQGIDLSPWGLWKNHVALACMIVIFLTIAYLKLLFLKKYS
Description: as §1, §2, §3

BCRP [4] = target: T3, BCRP; conditions: cited from earlier work
OATP2B1 [5] = target: T2, OATP2B1; conditions: cited from earlier work
P-gp [6] = target: T1, P-gp; parameters: made in house; host or cells: Spodoptera frugiperda Sf9 cells, crude membrane vesicles; conditions: ref Kulkarni et al.; cited from earlier work
MRP2 = target: T4, MRP2 (Homo sapiens, UniProt Q92887); test: Vesicular transport assay, MRP2 (CDCF substrate); format: biochemical
T4 construct: made in house; host or cells: Spodoptera frugiperda Sf9 cells, crude membrane vesicles
T4 sequence (Q92887 whole entry): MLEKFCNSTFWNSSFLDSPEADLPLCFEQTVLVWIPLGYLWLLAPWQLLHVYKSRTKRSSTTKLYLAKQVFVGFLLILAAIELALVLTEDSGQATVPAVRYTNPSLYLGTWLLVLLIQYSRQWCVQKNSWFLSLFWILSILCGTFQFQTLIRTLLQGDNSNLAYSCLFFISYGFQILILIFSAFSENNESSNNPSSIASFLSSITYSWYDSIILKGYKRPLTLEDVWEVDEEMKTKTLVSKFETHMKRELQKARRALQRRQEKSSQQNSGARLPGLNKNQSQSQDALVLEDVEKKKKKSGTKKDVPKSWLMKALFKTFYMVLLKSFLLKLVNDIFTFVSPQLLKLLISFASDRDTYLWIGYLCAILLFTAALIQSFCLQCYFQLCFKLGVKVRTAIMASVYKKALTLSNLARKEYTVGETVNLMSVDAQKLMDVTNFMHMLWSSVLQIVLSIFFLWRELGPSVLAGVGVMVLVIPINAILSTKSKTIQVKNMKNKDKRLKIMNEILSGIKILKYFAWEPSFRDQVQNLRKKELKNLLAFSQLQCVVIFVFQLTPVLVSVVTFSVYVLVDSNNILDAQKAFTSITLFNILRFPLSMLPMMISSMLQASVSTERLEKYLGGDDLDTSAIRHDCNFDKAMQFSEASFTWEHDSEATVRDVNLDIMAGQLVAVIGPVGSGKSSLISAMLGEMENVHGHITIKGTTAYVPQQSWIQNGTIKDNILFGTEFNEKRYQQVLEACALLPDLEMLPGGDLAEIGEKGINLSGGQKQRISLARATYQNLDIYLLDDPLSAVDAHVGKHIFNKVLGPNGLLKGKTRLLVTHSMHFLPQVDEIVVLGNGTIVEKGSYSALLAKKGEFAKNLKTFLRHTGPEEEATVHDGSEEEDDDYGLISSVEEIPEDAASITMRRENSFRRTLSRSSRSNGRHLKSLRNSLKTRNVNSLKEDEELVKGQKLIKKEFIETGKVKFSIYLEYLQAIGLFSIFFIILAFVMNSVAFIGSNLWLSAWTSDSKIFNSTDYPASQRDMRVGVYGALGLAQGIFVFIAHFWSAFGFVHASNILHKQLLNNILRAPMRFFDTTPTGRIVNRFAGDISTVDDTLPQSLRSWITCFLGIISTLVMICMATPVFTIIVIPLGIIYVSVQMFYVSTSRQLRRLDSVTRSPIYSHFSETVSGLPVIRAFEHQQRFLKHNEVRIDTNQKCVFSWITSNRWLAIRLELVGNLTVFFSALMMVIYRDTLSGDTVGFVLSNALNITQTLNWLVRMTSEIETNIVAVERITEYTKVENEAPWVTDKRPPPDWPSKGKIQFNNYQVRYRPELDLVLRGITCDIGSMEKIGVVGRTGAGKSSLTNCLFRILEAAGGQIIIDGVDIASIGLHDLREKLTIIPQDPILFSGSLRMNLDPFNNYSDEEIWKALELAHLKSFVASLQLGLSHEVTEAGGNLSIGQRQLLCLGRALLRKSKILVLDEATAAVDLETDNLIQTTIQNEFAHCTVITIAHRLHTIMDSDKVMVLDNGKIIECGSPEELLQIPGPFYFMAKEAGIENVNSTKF
Description: Transport inhibition by 22 food additives was tested with Spodoptera frugiperda (Sf9) derived crude membrane vesicles expressing BCRP, MRP2, or P-gp produced in-house. […] Vesicles (50 μg total protein/well) were diluted in an assay buffer (40 mM MOPS–Tris pH 7.0, 60 mM KCl, and 6 mM MgCl2) with the substrate, and food additives (final concentration of 50 μM) in DMSO were added to the mixture. After preincubation, either the assay buffer or Mg-ATP solution (final concentration 4 mM) was added to the plate to start the reaction. The plate was incubated at 37 °C, and the reaction was stopped with an ice-cold washing mixture (40 mM MOPS-Tris pH 7.0 and 70 mM KCl). Samples were moved to a MultiScreenHTS-FB Plate Glass fiber 1.0 μm/0.65 μm Durapore filter plate (Millipore, USA), and the wells were washed five times with the ice-cold washing mixture. For BCRP and MRP2, the fluorescent substrate was eluted from the filters with 100 μL 0.1 M NaOH. […] The amount of the substrate accumulated into the vesicles was measured by fluorescent detection using a Varioskan LUX microplate reader (Thermo Fisher Scientific, Finland) (Table ).
as §2, §3

[7] = food additive 50 μM, Lucifer yellow 50 μM

For `COc1ccc2c3c([nH]c2c1)[C@H](CC(C)C)N1C(=O)[C@H](CCC(=O)OC(C)(C)C)NC(=O)[C@@H]1C3` [Ko-143, reference compound], the “apical to basolateral P app of sulfasalazine with control inhibitor” value (Caco-2 cells; Ko-143 10 μM on apical and basolateral sides, sulfasalazine 500 μM) was ~0.6 × 10^–6 cm/s.
In the case of `O=C1O[C@H]([C@@H](O)CO)C(O)=C1O` [ascorbic acid], the “inhibition of P-gp substrate accumulation” value (P-gp [1]) is reported as “None”.
With `CC1=C(/C=C/C(C)=C/C=C/C(C)=C/C=C/C=C(C)/C=C/C=C(\C)C=O)C(C)(C)CCC1` [beta-apo-8’-carotenal] the “inhibition of OATP2B1-mediated uptake” value (OATP2B1 [2]) was “did not inhibit these transporters as markedly as beta-carotene”, the “inhibition of BCRP substrate accumulation” value (BCRP [3]; [7]) was “did not inhibit these transporters as markedly as beta-carotene” and the “inhibition of P-gp substrate accumulation” value (P-gp [1]) was “did not inhibit these transporters as markedly as beta-carotene”.
In the case of `COc1ccc(O)c(C(C)(C)C)c1` [butylated hydroxyanisole], the IC50 (BCRP [4]; read-out: IC50, BCRP, ref Kulkarni et al.) is given as greater than 50 µM, the BCRP inhibition (BCRP [4]; ref Kulkarni et al.) is given as “significant inhibitor” and the “inhibition of OATP2B1-mediated uptake” value (OATP2B1 [2]) is given as no more than 50%. The OATP2B1 inhibition (OATP2B1 [5]; ref Kulkarni et al.) was “significant inhibitor”, the IC50 (OATP2B1 [5]; ref Kulkarni et al., read-out: IC50, OATP2B1) was greater than 50 µM and the “inhibition of BCRP substrate accumulation” value (BCRP [3]; [7]) was no more than 50%. The “inhibition of P-gp substrate accumulation” value (P-gp [1]) was no more than 50%, the IC50 (P-gp [6]) was greater than 50 µM and the P-gp inhibition (P-gp [6]) was “significant inhibitor”.
For `Cc1cc(C(C)(C)C)c(O)c(C(C)(C)C)c1` [butylated hydroxytoluene], the BCRP inhibition (BCRP [4]; ref Kulkarni et al.) is given as “did not inhibit”, the “inhibition of OATP2B1-mediated uptake” value (OATP2B1 [2]) is given as “OATP2B1-stimulating effect” and the OATP2B1 inhibition (OATP2B1 [5]; ref Kulkarni et al.) is given as “did not inhibit; also recorded: OATP2B1-stimulating effect”. For the same compound, the IC50 (MRP2; CDCF 5 μM, membrane vesicles, n = 3, read-out: IC50 (95% CI), MRP2) was 49 µM, the inhibition at 50 μM (MRP2; Sf9-derived crude membrane vesicles expressing MRP2, pH 7, probe CDCF 5 μM, food additive 50 μM, n = 1, read-out: inhibition of MRP2 substrate accumulation) was no less than 50% and the “inhibition of P-gp substrate accumulation” value (P-gp [1]) was “None”. The P-gp inhibition (P-gp [6]) was “did not inhibit”.
With `CCCCCCCCCCCCOC(=O)c1cc(O)c(O)c(O)c1` [dodecyl gallate] the IC50 (BCRP [3]; Lucifer yellow 50 μM, membrane vesicles, n = 3, read-out: IC50 (95% CI), BCRP) was 22.5 µM and the inhibition at 50 μM (BCRP [3]; Sf9-derived crude membrane vesicles expressing BCRP, pH 7, probe Lucifer yellow 50 μM, food additive 50 μM, n = 1, read-out: inhibition of BCRP substrate accumulation) was no less than 50%.
For `OC[C@@H](O)[C@@H](O)CO` [erythritol], the “inhibition of P-gp substrate accumulation” value (P-gp [1]) was “None”.
With `OC[C@@H](O)[C@@H](O[C@@H]1O[C@H](CO)[C@H](O)[C@H](O)[C@H]1O)[C@H](O)[C@@H](O)CO` [lactitol] the “inhibition of P-gp substrate accumulation” value (P-gp [1]) was “None”.
For `OC[C@@H](O)[C@@H](O[C@H]1O[C@H](CO)[C@@H](O)[C@H](O)[C@H]1O)[C@H](O)[C@@H](O)CO` [maltitol], the “inhibition of P-gp substrate accumulation” value (P-gp [1]) was “None”.
With `OC[C@@H](O)[C@@H](O)[C@H](O)[C@H](O)CO` [mannitol] the “inhibition of P-gp substrate accumulation” value (P-gp [1]) was “None”.
With `CCCOC(=O)c1cc(O)c(O)c(O)c1` [propyl gallate] the “inhibition of P-gp substrate accumulation” value (P-gp [1]) was “None”.
In the case of `OC[C@@H](O)[C@@H](O)[C@H](O)[C@@H](O)CO` [sorbitol], the “inhibition of P-gp substrate accumulation” value (P-gp [1]) is reported as “None”.
In the case of `O=S(=O)([O-])c1ccc(N=Nc2c(O)ccc3cc(S(=O)(=O)[O-])ccc23)cc1.[Na+].[Na+]` [sunset yellow FCF], the IC50 (BCRP [4]; read-out: IC50 (95% CI), BCRP, previously characterized inhibitors, ref previous studies) is listed as 10.6 µM and 14.1 µM, the IC50 (OATP2B1 [5]; pH 5.5, previously characterized inhibitors, ref previous studies, read-out: IC50, OATP2B1, pH 5.5) is listed as 20.3 µM and the Ki (OATP2B1 [5]; previously characterized inhibitors, ref previous studies, read-out: K i, OATP2B1) is listed as 68.4 µM. The “effect on sulfasalazine permeability (P app)” value (Caco-2 cells; Caco-2) was “None of the selected food additives showed any effect”.
In the case of `O=C([O-])C1=NN(c2ccc(S(=O)(=O)[O-])cc2)C(=O)C1N=Nc1ccc(S(=O)(=O)[O-])cc1.[Na+].[Na+].[Na+]` (centres unmarked) [tartrazine], the “sulfasalazine P app fold change” value (Caco-2 cells; food additive 200 μM on both sides of the cell monolayer) is reported as no more than 2.
In the case of `OC[C@@H](O)[C@H](O)[C@@H](O)CO` [xylitol], the “inhibition of P-gp substrate accumulation” value (P-gp [1]) is reported as “None”.
